Experimental data as given in the NIST ThermoML archive (doi:10.1021/je800571y).

Assay: xn = mol fraction of the nth substance listed
Conditions: 101 kPa, Liquid

CCC(C)=O [butanone] + CC(C)O
Conditions	mass density, 293.15 K [kg/m3]	mass density, 298.15 K [kg/m3]	mass density, 303.15 K [kg/m3]	mass density, 308.15 K [kg/m3]	mass density, 313.15 K [kg/m3]	viscosity, 293.15 K [mPa·s]	viscosity, 298.15 K [mPa·s]	viscosity, 303.15 K [mPa·s]	viscosity, 308.15 K [mPa·s]	viscosity, 313.15 K [mPa·s]
x1 = 0.0562	786.4	782.34	778.9	773.52	769.21	–	–	–	–	–
x1 = 0.0595	–	–	–	–	–	1.816	1.596	1.413	1.272	1.165
x1 = 0.1136	787.47	783.31	779.85	774.58	770.17	–	–	–	–	–
x1 = 0.1282	–	–	–	–	–	1.504	1.362	1.207	1.095	1.003
x1 = 0.1724	788.54	784.36	780.81	775.58	771.13	1.294	1.185	1.046	0.9637	0.8693
x1 = 0.2326	789.67	785.46	781.82	776.64	772.12	1.103	0.9992	0.9083	0.8366	0.774
x1 = 0.2941	790.83	786.59	782.85	777.7	773.13	0.9668	0.8812	0.8021	0.7488	0.6929
x1 = 0.3571	792.05	787.74	783.91	778.8	774.16	–	–	–	–	–
x1 = 0.3572	–	–	–	–	–	0.852	0.7675	0.7154	0.6663	0.6169
x1 = 0.4217	793.29	788.95	785.01	779.92	775.21	0.7693	0.6949	0.6406	0.5987	0.5567
x1 = 0.4878	794.6	790.18	786.14	781.07	776.27	0.7113	0.6289	0.5816	0.5428	0.4753
x1 = 0.5555	795.96	791.44	787.29	782.24	777.37	–	–	–	–	–
x1 = 0.5556	–	–	–	–	–	0.6609	0.5801	0.5303	0.4834	0.4406
x1 = 0.625	797.35	792.74	788.49	783.44	778.48	0.6072	0.5071	0.4848	0.4314	0.3846
x1 = 0.6962	798.79	794.08	789.7	784.66	779.61	0.5511	0.4516	0.4355	0.3751	0.3302
x1 = 0.7692	800.26	795.45	790.95	785.91	780.76	–	–	–	–	–
x1 = 0.7693	–	–	–	–	–	0.5144	0.3852	0.3866	0.3345	0.316
x1 = 0.8442	801.6	796.86	792.21	787.18	781.93	0.4675	0.353	0.3359	0.306	0.286
x1 = 0.9211	803.3	798.3	793.51	788.48	783.12	0.4293	0.3262	0.2972	0.2758	0.2706
x1 = 1	804.92	799.7	794.81	789.78	784.32	–	0.2828	0.2666	0.2601	0.2545

CCC(C)(C)O [2-methylbutan-2-ol] + CCC(C)=O
Conditions	mass density, 293.15 K [kg/m3]	mass density, 298.15 K [kg/m3]	mass density, 303.15 K [kg/m3]	mass density, 308.15 K [kg/m3]	mass density, 313.15 K [kg/m3]	viscosity, 293.15 K [mPa·s]	viscosity, 298.15 K [mPa·s]	viscosity, 303.15 K [mPa·s]	viscosity, 308.15 K [mPa·s]	viscosity, 313.15 K [mPa·s]
x2 = 0	809.61	805.01	800.41	795.81	791.21	5.108	4.474	3.909	3.387	2.909
x2 = 0.0803	809.22	804.57	799.94	795.3	790.63	3.81	3.35	2.9	2.521	2.26
x2 = 0.1583	808.84	804.15	799.49	794.82	790.09	2.862	2.521	2.14	1.905	1.7
x2 = 0.2341	808.48	803.74	799.06	794.36	789.57	2.105	1.85	1.53	1.421	1.287
x2 = 0.3077	808.13	803.35	798.85	793.92	789.06	1.558	1.37	1.09	1.103	0.9819
x2 = 0.3794	807.79	802.97	798.25	793.49	788.57	1.15	1.054	–	0.84	0.7418
x2 = 0.449	807.47	802.6	797.86	793.07	788.09	0.842	0.8221	0.6863	0.7188	0.5869
x2 = 0.5168	807.16	802.24	797.48	792.67	787.63	0.6725	0.6579	0.5601	0.5865	0.4801
x2 = 0.5828	806.85	801.89	796.12	792.27	787.18	0.5515	0.5913	0.5201	0.5202	0.4017
x2 = 0.6471	806.56	801.56	796.77	791.89	786.74	0.4986	0.5219	0.52	0.4801	0.3511
x2 = 0.7097	806.27	801.23	796.43	791.52	786.32	0.4935	0.4894	0.48	0.4507	–
x2 = 0.7707	805.99	800.91	796.08	791.15	785.9	0.4482	0.4437	0.4801	0.4505	0.323
x2 = 0.8302	805.71	800.6	795.75	790.79	785.49	0.4457	0.4344	0.4802	0.4503	0.3001
x2 = 0.8882	805.45	800.29	795.42	790.44	785.09	0.4464	0.3813	0.4402	0.4012	0.2999
x2 = 0.9448	805.18	799.99	795.11	790.1	784.7	0.4338	0.3142	0.3601	0.32	0.2997

CCC(C)=O [butanone] + CCC(C)O
Conditions	mass density, 293.15 K [kg/m3]	mass density, 298.15 K [kg/m3]	mass density, 303.15 K [kg/m3]	mass density, 308.15 K [kg/m3]	mass density, 313.15 K [kg/m3]	viscosity, 293.15 K [mPa·s]	viscosity, 298.15 K [mPa·s]	viscosity, 303.15 K [mPa·s]	viscosity, 308.15 K [mPa·s]	viscosity, 313.15 K [mPa·s]
x1 = 0.0684	806.36	802.16	798.67	793.88	789.68	2.91	2.429	2.037	1.692	1.499
x1 = 0.1365	806.25	801.98	798.39	793.58	789.29	2.34	2.007	1.649	1.339	1.228
x1 = 0.2044	806.14	801.79	798.1	793.28	788.9	1.87	1.613	1.352	1.054	1.003
x1 = 0.2721	806.03	801.61	797.82	792.98	788.51	1.491	1.299	1.074	0.8161	0.8187
x1 = 0.3395	805.92	801.43	797.54	792.68	788.13	1.183	1.051	0.8484	0.6282	0.6806
x1 = 0.4066	805.81	801.25	797.26	792.39	787.74	0.9558	0.8537	0.6826	0.5076	0.5709
x1 = 0.4735	805.71	801.07	796.98	792.09	787.36	0.7693	0.687	0.5613	0.4126	0.4786
x1 = 0.5402	805.61	800.9	796.71	791.8	786.97	0.6236	0.56	0.4526	0.3601	0.4206
x1 = 0.6066	805.5	800.72	796.43	791.51	786.59	0.5287	0.48	0.3944	0.326	0.3681
x1 = 0.6727	805.4	800.55	796.16	791.22	786.21	0.4645	0.4282	0.3468	0.3051	0.3429
x1 = 0.7387	805.3	800.38	795.89	790.93	785.83	0.4412	0.3922	0.3077	0.309	0.3191
x1 = 0.8044	805.21	800.1	795.62	790.64	785.45	0.4486	0.362	0.3031	0.3112	0.2915
x1 = 0.8698	805.11	800.04	795.35	790.35	785.07	0.4468	0.3482	0.3071	0.3186	0.2805
x1 = 0.935	805.01	799.87	795.08	790.06	784.7	0.42	0.3	0.2786	0.2966	0.2718
x1 = 1	804.92	799.7	794.81	789.78	784.32	0.3956	0.2828	0.2666	0.2601	0.2545
